The values below come from patent US10144732B2 (BIOGEN MA INC., priority 2014, dated 2018).

Where a name gives a salt, the structure may show the parent alone.

The first assay has as its target T1, Human ATX protein (Homo sapiens, UniProt Q13822).
T1 construct: made in house
The experiment in a line: ATX biochemical assay (FRET, FS-3 substrate). The settings on record: FRET assay, FS-3 2 μM, ATX 1.0 μg/mL, 30 minutes preincubation, 2 hours reaction at room temperature; read-out: IC50. An excerpt: ATX (Autotaxin) is a 125 KDa glycoprotein with lysophospholipase D (LPLD) activity that generates the bioactive lipid lysophosphatidic acid (LPA) from lysophosphatidylcholine (LPC). The ATX biochemical assay utilizes a FRET (fluorescence resonance energy transfer) technology platform. The fluorescence signal of FRET substrate FS-3 is quenched due to intra-molecular FRET of a fluorophore to a non-fluorescing quencher (Ferguson, C. G., et al., Org Lett. 2006 May 11; 8(10): 2023-2026, which is incorporated by reference in its entirety). ATX catalyzes the hydrolysis of the substrate which separates the dabsyl quencher from the fluorescein reporter, which becomes fluorescent. The reaction is monitored by a SpectraMax M5 (Molecular Devices, Sunnyvale, Calif.) with at excitation wavelength 485 nm and emission wavelength […].
Fatty acid free-BSA (Sigma A8806): 10 mg/mL in H2O, stored at 4° C.
2×ATX assay buffer: 100 mM Tris, 280 mM NaCl, 10 mM KCl, 2 mM CaCl2, 2 mM MgCl2, pH 7.4.
Human ATX protein: expressed and purified in house. Stored at −80° C.
Substrate FS-3 (Echelon, L-2000): 100 μg in 77.74 μL H2O (1 mM stock), stored at −20° C.
384-well flat bottom plates—Corning #3575.
Compound dilution—All compounds were provided at 10 mM in 100% DMSO. In the first well, 2 μL of 10 mM compound was added to 78 μL of DMSO (1:40 dilution). In subsequent wells 3-fold dilution (total 10 dilutions) were performed.
1×ATX assay buffer was made up with a final concentration of 1 mg/mL fatty acid free-BSA using 2×ATX assay buffer, 10 mg/ml fatty acid free-BSA and ddH2O.
[…]. The final concentration of ATX in the reaction as 1.0 μg/mL.
2 μL per well of compounds was transferred to provide the desired concentration. The plate was centrifuged, then incubated at room temperature for 30 minutes on the shaker.
FS-3 was diluted with 1×ATX assay buffer to a concentration of FS-3 of 10 μM (5×). Then, 10 μL was added per well to the assay plate. The final concentration of FS-3 in the reaction was 2 μM. The plate was centrifuged. The plate was kept shaking at room temperature for 2 hours. Because FS-3 substrate is light sensitive, plates were kept covered and protected from light.
Fluorescence was measured using SpectraMax M5 (excitation at 485 nm/emission at 538 nm, top read).
The term IC50 denotes the concentration at which inhibition is half-maximal. Consider `O=C(O)[C@@H]1CC(CC(=O)N2CCc3c(C(F)(F)F)nn(Cc4ccc(Cl)cc4F)c3C2)CN1` (some centres unmarked) [Example 9-8, (2s)-4-(2-(1-(4-Chloro-2-fluorobenzyl)-3-(trifluoromethyl)-4,5-dihydro-1H-pyrazolo[3,4-c]pyridin-6(7H)-yl)-2-oxoethyl)pyrrolidine-2-carboxylic acid TFA salt], for which the 50% inhibitory concentration (IC50) is at most 100 nM.

Turning to `CC(C(=O)N1CCc2c(C(F)(F)F)nn(Cc3ccc(Cl)cc3F)c2C1)N1CCC(C(=O)O)CC1` (centres unmarked) [Example 13-8, 1-(1-(1-(4-Chloro-2-fluorobenzyl)-3-(trifluoromethyl)-4,5-dihydro-1H-pyrazolo[3,4-c]pyridin-6(7H)-yl)-1-oxopropan-2-yl)piperidine-4-carboxylic acid], the IC50 was at most 100 nM.

Consider `CC(C)(C)OC(=O)N1CCC(CC(=O)N2CCc3c(C(F)(F)F)nn(Cc4ccc(Cl)cc4F)c3C2)CC1C(F)(F)F` (centres unmarked) [Example 8-7, tert-Butyl 4-(2-(1-(4-chloro-2-fluorobenzyl)-3-(trifluoromethyl)-4,5-dihydro-1H-pyrazolo[3,4-c]pyridin-6(7H)-yl)-2-oxoethyl)-2-(trifluoromethyl)piperidine-1-carboxylate], for which the IC50 is at most 100 nM.

In the case of `N#CC1CCN(CC(=O)N2CCc3c(C(F)(F)F)nn(Cc4ccc(F)cc4)c3C2)CC1` [Example 12-10, 1-(2-(1-(4-Fluorobenzyl)-3-(trifluoromethyl)-4,5-dihydro-1H-pyrazolo[3,4-c]pyridin-6(7H)-yl)-2-oxoethyl)piperidine-4-carbonitrile TFA salt], the 50% inhibitory concentration (IC50) is at most 100 nM.

In the case of `O=C(O)C1CC(CC(=O)N2CCc3c(C(F)(F)F)nn(Cc4ccc(F)cc4)c3C2)C1` (mixture of isomers) [Example 6-9, 3-(2-(1-(4-Fluorobenzyl)-3-(trifluoromethyl)-4,5-dihydro-1H-pyrazolo[3,4-c]pyridin-6(7H)-yl)-2-oxoethyl)cyclobutanecarboxylic acid], the half-maximal inhibitory concentration (IC50) is at most 100 nM.

For `CCOC(=O)[C@H]1CC[C@H](CC(=O)N2CCc3c(C#N)nn(Cc4ccc(F)cc4)c3C2)CC1` [Example 1-43, trans-Ethyl 4-(2-(3-cyano-1-(4-fluorobenzyl)-4,5-dihydro-1H-pyrazolo[3,4-c]pyridin-6(7H)-yl)-2-oxoethyl)cyclohexanecarboxylate], the IC50 was at most 100 nM.

For `CCOC(=O)[C@H]1CC[C@H](CC(=O)N2CCc3c(C(F)(F)F)nn(Cc4cncs4)c3C2)CC1` [Example 1-47, trans-Ethyl 4-(2-oxo-2-(1-(thiazol-5-ylmethyl)-3-(trifluoromethyl)-4,5-dihydro-1H-pyrazolo[3,4-c]pyridin-6(7H)-yl)ethyl)cyclohexanecarboxylate], the IC50 is at most 100 nM.

Turning to `O=C(O)C1CCCN(CC(=O)N2CCc3c(C(F)(F)F)nn(Cc4ccc(F)cc4)c3C2)C1` (centres unmarked) [Example 13-7, 1-(2-(1-(4-Fluorobenzyl)-3-(trifluoromethyl)-4,5-dihydro-1H-pyrazolo[3,4-c]pyridin-6(7H)-yl)-2-oxoethyl)piperidine-3-carboxylic acid], the IC50 is at most 100 nM.

As to `O=C(C[C@H]1CC[C@@H](C(=O)O)CC1)N1CCc2c(C(F)(F)F)nn(Cc3ccccc3)c2C1` [Example 7-12, cis-4-(2-(1-benzyl-3-(trifluoromethyl)-4,5-dihydro-1H-pyrazolo[3,4-c]pyridin-6(7H)-yl)-2-oxoethyl)cyclohexanecarboxylic acid], the IC50 was at most 100 nM.

For the molecule `CCOC(=O)[C@H]1CC[C@H](CC(=O)N2CCc3c(C(F)(F)F)nn(CC4CCC(C)CC4)c3C2)CC1` (stereo partly drawn) [Example 1-48, trans-Ethyl 4-(2-(1-((4-methylcyclohexyl)methyl)-3-(trifluoromethyl)-4,5-dihydro-1H-pyrazolo[3,4-c]pyridin-6(7H)-yl)-2-oxoethyl) cyclohexanecarboxylate], the IC50 is at most 100 nM.

Turning to `CCOC(=O)C1CCC(CC(=O)N2CCc3cnn(Cc4ccc(F)cc4)c3C2)CC1` (centres unmarked) [Example 1-17, Ethyl 4-(2-(1-(4-fluorobenzyl)-4,5-dihydro-1H-pyrazolo[3,4-c]pyridin-6(7H)-yl)-2-oxoethyl)cyclohexanecarboxylate], the IC50 is at most 100 nM.

Take `CCOC(=O)[C@H]1CC[C@H](CC(=O)N2CCc3c(C(F)(F)F)nn(CCc4ccccc4)c3C2)CC1` [Example 1-28, trans-Ethyl 4-(2-oxo-2-(1-phenethyl-3-(trifluoromethyl)-4,5-dihydro-1H-pyrazolo[3,4-c]pyridin-6(7H)-yl)ethyl)cyclohexanecarboxylate]: the IC50 is 100 to 250 nM.

With `CC1CC(CC(=O)N2CCc3c(C(F)(F)F)nn(Cc4ccc(Cl)cc4F)c3C2)CCN1` (centres unmarked) [Example 9-5, 1-(1-(4-Chloro-2-fluorobenzyl)-3-(trifluoromethyl)-4,5-dihydro-1H-pyrazolo[3,4-c]pyridin-6(7H)-yl)-2-(2-methylpiperidin-4-yl)ethanone TFA salt], the IC50 was at most 100 nM.

As for `N#CC1CN(CC(=O)N2CCc3c(C(F)(F)F)nn(Cc4ccc(F)cc4)c3C2)C1` [Example 12-12, 1-(2-(1-(4-Fluorobenzyl)-3-(trifluoromethyl)-4,5-dihydro-1H-pyrazolo[3,4-c]pyridin-6(7H)-yl)-2-oxoethyl)azetidine-3-carbonitrile TFA salt], the IC50 is at most 100 nM.

In the case of `CC1(C(=O)O)CC(CC(=O)N2CCc3c(C(F)(F)F)nn(Cc4ccc(Cl)cc4F)c3C2)C1` (centres unmarked) [Example 6-18, 3-(2-(1-(4-Chloro-2-fluorobenzyl)-3-(trifluoromethyl)-4,5-dihydro-1H-pyrazolo[3,4-c]pyridin-6(7H)-yl)-2-oxoethyl)-1-methylcyclobutanecarboxylic acid], the IC50 is at most 100 nM.

For `O=C(CC1CCC(N2CCCC2)CC1)N1CCc2c(C(F)(F)F)nn(Cc3ccc(F)cc3)c2C1` (centres unmarked) [Example 22-9, 1-(1-(4-Fluorobenzyl)-3-(trifluoromethyl)-4,5-dihydro-1H-pyrazolo[3,4-c]pyridin-6(7H)-yl)-2-(4-(pyrrolidin-1-yl)cyclohexyl)ethanone TFA salt], the IC50 is at most 100 nM.

As for `O=C(CC1CCN(c2ccccn2)CC1)N1CCc2c(C(F)(F)F)nn(Cc3ccc(F)cc3)c2C1` [Example 18-2, 1-(1-(4-Fluorobenzyl)-3-(trifluoromethyl)-4,5-dihydro-1H-pyrazolo[3,4-c]pyridin-6(7H)-yl)-2-(1-(pyridin-2-yl)piperidin-4-yl)ethanone TFA salt], the IC50 was at most 100 nM.

For the molecule `CN1CC(CC(=O)N2CCc3c(C(F)(F)F)nn(Cc4ccc(Cl)cc4F)c3C2)C[C@H]1C(=O)O` (stereo partly drawn) [Example 10-11, (2S)-4-(2-(1-(4-Chloro-2-fluorobenzyl)-3-(trifluoromethyl)-4,5-dihydro-1H-pyrazolo[3,4-c]pyridin-6(7H)-yl)-2-oxoethyl)-1-methylpyrrolidine-2-carboxylic acid TFA salt], the 50% inhibitory concentration (IC50) is at most 100 nM.

The assay is the same for the next values; noted with them: IC50, FRET assay, FS-3 2 μM, ATX 1.0 μg/mL, 30 minutes preincubation, 2 hours reaction at room temperature.
With `COC(=O)C1CC2CCC(C1)N2CC(=O)N1CCc2c(C(F)(F)F)nn(Cc3ccc(Cl)cc3F)c2C1` (centres unmarked) [Example 12-4, Methyl 8-(2-(1-(4-chloro-2-fluorobenzyl)-3-(trifluoromethyl)-4,5-dihydro-1H-pyrazolo[3,4-c]pyridin-6(7H)-yl)-2-oxoethyl)-8-azabicyclo[3.2.1]octane-3-carboxylate], the 50% inhibitory concentration (IC50) was at most 100 nM.

In turn, `O=C(CC1CC2CCC(C1)N2)N1CCc2c(C(F)(F)F)nn(Cc3ccc(Cl)cc3F)c2C1` (centres unmarked) [Example 9-1, 2-(8-Aza-bicyclo[3.2.1]octan-3-yl)-1-(1-(4-chloro-2-fluorobenzyl)-3-(trifluoromethyl)-4,5-dihydro-1H-pyrazolo[3,4-c]pyridin-6(7H)-yl)ethanone TFA salt] returned an IC50 of at most 100 nM.
